Data as given in patent US6090787A, “Antithrombotic agents” (Eli Lilly and Company, priority 1999, dated 2000).
Square brackets hold non-standard residues; d marks the D form. Peptide text beside a SMILES is read from it. dPip = O=C(O)[C@H]1CCCCN1; Sar = CNCC(=O)O

What was measured:
human thrombin = target: T1, human thrombin (Homo sapiens, UniProt P00734); experiment: Inhibition of amidase activity of thrombin (Kass), chromogenic substrate; format: biochemical; details: apparent association constant, mean over a range of concentrations
T1 construct: purified human thrombin, Enzyme Research Laboratories; purchased Enzyme Research Laboratories, South Bend, Indiana
Protocol: The assay is carried out by mixing 50 μL buffer (0.03 M Tris, 0.15 M NaCl, pH 7.4) with 25 μL of bovine thrombin or human thrombin solution (0.21 mg/mL of thrombostat bovine thrombin, Parke-Davis, or purified human thrombin, Enzyme Research Laboratories, South Bend, Indiana, at about 8 NIH units/mL, in the same buffer) and 25 μL of test compound in a solvent (in 50% aqueous methanol, v:v). The 150 μL of an aqueous solution of the chromogenic substrate (at 0.25 mg/mL) are added and the rates of hydrolysis of the substrate are measured by monitoring the reactions at 405 nm for the release of p-nitroaniline. Standard curves are constructed by plotting free thrombin concentration against hydrolysis rate. The hydrolysis rates observed with test compounds are then converted to "free thrombin" values in the respective assays by use of the standard curves. The bound thrombin (bound to test compound) is calculated by subtracting the amount of free thrombin observed in each assay from the known initial amount of thrombin used in the assay. The amount of free inhibitor in each assay is calculated by subtracting the number of moles of bound thrombin from the number of moles of added inhibitor (test compound).
The Kass value is the hypothetical equilibrium constant for the reaction between thrombin and the test compound (I). [formula]
Kass is calculated for a range of concentrations of test compounds and the mean value is reported in units of liter per mole.

Human plasmin = target: T2, Human plasmin (Homo sapiens, UniProt P00747); experiment: Fibrinolytic protease selectivity, Kass, plasmin chromogenic assay; format: biochemical; details: apparent association constant
T2 construct: Human plasmin is purchased from Boehringer Mannheim; purchased Boehringer Mannheim, Indianapolis, Indiana
T2 sequence (P00747 581-810 limits assumed): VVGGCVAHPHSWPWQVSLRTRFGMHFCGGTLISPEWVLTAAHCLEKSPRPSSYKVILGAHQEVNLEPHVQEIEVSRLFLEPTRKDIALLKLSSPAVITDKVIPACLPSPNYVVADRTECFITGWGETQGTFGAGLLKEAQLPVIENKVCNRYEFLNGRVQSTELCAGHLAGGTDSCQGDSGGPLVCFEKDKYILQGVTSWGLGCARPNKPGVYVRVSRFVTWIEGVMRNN
T2 sequence (P00747 97-580 partner limits assumed): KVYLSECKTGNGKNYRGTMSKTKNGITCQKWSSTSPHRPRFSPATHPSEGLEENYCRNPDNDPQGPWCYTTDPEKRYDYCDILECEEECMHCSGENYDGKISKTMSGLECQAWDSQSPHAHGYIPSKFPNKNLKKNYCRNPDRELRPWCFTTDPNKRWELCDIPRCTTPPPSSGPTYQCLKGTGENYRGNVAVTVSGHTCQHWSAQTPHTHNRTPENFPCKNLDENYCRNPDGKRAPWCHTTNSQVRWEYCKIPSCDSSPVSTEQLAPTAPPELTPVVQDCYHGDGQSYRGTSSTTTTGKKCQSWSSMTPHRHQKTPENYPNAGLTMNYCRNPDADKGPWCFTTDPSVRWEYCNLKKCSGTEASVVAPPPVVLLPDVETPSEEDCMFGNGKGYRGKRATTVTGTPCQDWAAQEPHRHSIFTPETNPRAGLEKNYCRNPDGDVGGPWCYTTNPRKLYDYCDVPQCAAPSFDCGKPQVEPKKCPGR
Protocol: By substantially following the procedures described above for human thrombin, and using other human blood coagulation system serine proteases and proteases of the fibrinolytic system with the appropriate chromogenic substrates, identified below, selectivity of the compounds of the present invention with respect to the coagulation factor serine proteases and with respect to the fibrinolytic system serine proteases are evaluated as well as their substantial lack of interference with serine proteases of the fibrinolytic system. Thrombin inhibitors preferably should spare fibrinolysis induced by urokinase, tissue plasminogen activator (t-PA) and streptokinase. This would be important to the therapeutic use of such agents as an adjunct to streptokinase, t-PA or urokinase thrombolytic therapy and to the use of such agents as an endogenous fibrinolysis-sparing (with respect to t-PA and urokinase) antithrombotic agent. In addition to the lack of interference with the amidase activity of the fibrinolytic proteases, such fibrinolytic system sparing can be studied by the use of human plasma clots and their lysis by the respective fibrinolytic plasminogen activators.
Human plasmin is purchased from Boehringer Mannheim, Indianapolis, Indiana; nt-PA is purchased as single chain activity reference from American Diagnostica, Greenwich, Conn.; modified-t-PA6 (mt-PA6) is prepared at Eli Lilly and Company by procedure known in the art (See, Burck, et al., J. Biol. Chem., 265, […] (1990). Plasmin chromogenic substrate H--D--Val--Leu--Lys--p--nitroanilide and tissue plasminogen activator (t-PA) substrate H--D--Ile--Pro--Arg--p--nitroanilide are purchased from Kabi Vitrum, Stockholm, Sweden.

human plasma = experiment: Human plasma anticoagulation, prothrombin time (PT); details: concentration required to double the PT, linear extrapolation
Protocol: Dog plasma and rat plasma is obtained from conscious mixed-breed hounds (either sex, Hazelton-LRE, Kalamazoo, Mich., U.S.A.) or from anesthetized male Sprague-Dawley rats (Harlan Sprague-Dawley, Inc., Indianapolis, Ind., U.S.A.) by venipuncture into 3.8 percent citrate. Fibrinogen is prepared from in-date ACD human blood as the fraction I-2 according to previous procedures and specifications. Smith, Biochem. J., 185, 1-11 (1980); and Smith, et al., Biochemistry, 11, 2958-2967 (1972). Human fibrinogen is also purchased as 98 percent pure/plasmin free from American Diagnostica, Greenwich, Conn. Coagulation reagents ACTIN, Thromboplastin, and Human plasma are from Baxter Healthcare Corp., Dade Division, Miami, Fla. Bovine thrombin from Parke-Davis ([…], Mich.) is used for coagulation assays in plasma.
Coagulation assay procedures are as previously described. Smith, et al., Thrombosis Research, 50, 163-174 (1988). A CoAScreener coagulation instrument (American LABor, Inc.) is used for all coagulation assay measurements. The prothrombin time (PT) is measured by adding 0.05 mL saline and 0.05 mL Thromboplastin-C reagent to 0.05 mL test plasma. The activated partial thromboplastin time (APTT) is measured by incubation of 0.05 mL test plasma with 0.05 mL Actin reagent for 120 seconds followed by 0.05 mL CaCl2 (0.02 M). The thrombin time (TT) is measured by adding 0.05 mL saline and 0.05 mL thrombin (10 NIH units/mL) to 0.05 mL test plasma. The compounds of formula I are added to human or animal plasma over a wide range of concentrations to determine prolongation effects on the APTT, PT, and TT assays. Linear extrapolations are performed to estimate the concentrations required to double the clotting time for each assay.

[1] = Index of bioavailability (% Relative Activity from plasma TT AUC, oral vs i.v.); format: in vivo; details: dose-adjusted AUC of plasma TT time course, p.o. vs i.v. bolus
Protocol: Plasma thrombin time (TT) and activated partial thromboplastin time (APTT) are measured with a fibrometer. Blood is sampled from a jugular catheter and collected in syringe containing sodium citrate (3.8%, 1 part to 9 parts blood). […] Parke Davis) at 37° C. For APTT, plasma (0.1 mL) and APTT solution (0.1 mL, Organon Teknika) are incubated for 5 minutes (37° C.) and CaCl2 (0.01 mL, 0.025 M) is added to start coagulation. Assays are done in duplicate and averaged. A measure of bioactivity, plasma thrombin time (TT), served as a substitute for the assay of parent compound on the assumption that increments in TT resulted from thrombin inhibition by parent only. The time course of the effect of the thrombin inhibitor upon TT is determined after i.v. bolus administration to anesthetized rats and after oral treatment of fasted conscious rats. Due to limitations of blood volume and the number of points required to determine the time course from time of treatment to the time when the response returned to pretreatment values, two populations of rats are used. Each sample population represented alternating sequential time points. The average TT over the time course is used to calculate area under the curve (AUC). The index of bioavailability is calculated by the formula shown below and is expressed as percent relative activity. The area under the curve (AUC) of the plasma TT time course is determined and adjusted for the dose. This index of bioavailability is termed "% Relative Activity" and is calculated as [formula] Compound solutions are prepared fresh daily in normal saline and are injected as a bolus or are infused starting 15 minutes before and continuing throughout the experimental perturbation which is 15 minutes in the arteriovenous shunt model and 60 minutes in the FeCl3 model of arterial injury and in the spontaneous thombosis model. Bolus injection volume is 1 mL/kg for i.v., and 5 mL/kg for p.o. and infusion volume is 3 mL/hr.

| Enzyme Kass Human Thrombin (human thrombin) [L/mol × 10^6] | Enzyme Kass Plasmin (Human plasmin) [L/mol × 10^6] | % oral/i.v. activity (Rat) [1] [%] | SMILES | Human Plasma Anticoagulation 2 × Clotting time PT (human plasma) |
| --- | --- | --- | --- | --- |
| 22 | 0.031 | 37 | CN(CC(=O)N[C@H](C=O)CCCNC(=N)N)C(=O)[C@H]1CCCCN1.Cl.Cl [Example 1, D-homoprolyl-N-methylglycyl-L-argininal dihydrochloride] (H-[dPip]-[Sar]-Arg-aldehyde) | 4,800 ng/mL |
| 87 | 0.44 | 17 | Cl.Cl.N=C(N)NCCC[C@@H](C=O)NC(=O)CN(CCc1ccccc1)C(=O)[C@H]1CCCCN1 [Example 8, D-homoprolyl-N-(2-phenylethyl)glycyl-L-argininal dihydrochloride] | 2,000 ng/mL |

| SMILES | Enzyme Kass Human Thrombin (human thrombin) [L/mol × 10^6] | Enzyme Kass Plasmin (Human plasmin) [L/mol × 10^6] | % oral/i.v. activity (Rat) [1] [%] | Human Plasma Anticoagulation 2 × Clotting time PT (human plasma) |
| --- | --- | --- | --- | --- |
| CC(C)CCN(CC(=O)N[C@H](C=O)CCCN=C(N)N)C(=O)[C@H]1CCCCN1.Cl.Cl [Example 6, D--hPro--N(isoamyl)Gly--ArgH.2HCl] | 16 | 0.059 | 22 | 2,600 ng/mL |
